Measurements reported in patent publication US8420852B2, “Phospholipase A2 inhibitors and their use in treating neurological injury and disease” (The Regents of the University of California, priority 2007, dated 2013).

Test system: chemokine and cytokine protein expression in spinal cord
Assay: mouse inflammation antibody array of spinal cords of EAE mice
Assay type: in vivo
Conditions: treatment from day 5, tissue day 18
Experimental: Spinal cords were removed from vehicle and inhibitor treated animals when the vehicle-treated mice reached the peak of disease (score of 4). The tissues were then homogenized in lysis buffer and centrifuged at 1000×g. These protein samples were then assessed using the Raybio® inflammatory antibody array from RayBiotech Inc (Norcross, Ga.). Briefly, blocking buffer was added to glass-chip slides, which are coated with antibodies against chemokine, cytokine and related proteins. The slides were then incubated with the various protein samples from the treatment and control groups. After washing the glass slides, they were incubated sequentially with a biotin conjugated secondary antibody solution, horseradish peroxidase (HRP)-conjugated strepavidin, and HRP detection buffer. The signals were then visualized by chemiluminescence. Densitometric analysis was performed to detect differences between the various samples using ImageQuant 5.1 software (Molecular Dynamics). Positive control signals were used to normalize the level of expression from different glass slides being compared. Experiments were repeated with 3 different samples (n=3), and all the detection and analysis was done blind.
The results of this group of experiments are shown with the reference to FIGS. 15 and 16. FIG. 15 provides graphs showing the level of protein expression of chemokines in spinal cords of naive mice and EAE mice treated with PLA2 inhibitors starting on day 5. Tissues were taken on day 18, when the vehicle treated animals reached the peak of the first clinical attack. The data are shown for inhibitors AX059 (FIG. 15a) and AX115 (FIG. 15b). Data represent means±SEM from 3 animals in each group. In the figures, * represents a significant decrease, while ** represents a significant increase as compared to vehicle treated EAE controls.
FIG. 16 provides graphs showing the level of protein expression of cytokines in spinal cords of naive mice and EAE treated mice treated with PLA2 inhibitors starting on day 5. Tissues were taken on day 18, when the vehicle treated animals reached the peak of the first clinical attack. The data are shown for inhibitors AX059 (FIG. 16a) and AX115 (FIG. 16b). Data represent means±SEM from 3 animals in each group. In the figures, * represents a significant decrease, while ** represents a significant increase as compared to vehicle treated EAE controls.
Changes were assessed in protein expression of 40 chemokines and cytokines, their receptors and related molecules, using a mouse antibody array (RayBiotech Inc.). The analysis was carried out on spinal cords from mice treated with inhibitors starting from day 5 post-immunization. Tissue was taken on day 18 when the control vehicle-treated mice reached the peak of the first clinical attack. 12 chemokines were increased in vehicle-treated mice (FIG. 15), most of which are known to play a role in EAE, except for LIX (CXCL5) and TECK (CCL25), whose functions in CNS autoimmune disease remain unclear. […] In contrast, the pan-inhibitor AX115, which inhibits sPLA2 greater than AX059 reduced the expression of 7 of the 12 chemokines (FIG. 15b). Importantly, it increased the expression of eotaxin-2 (1.8-fold), RANTES (9.6-fold) and MIP-1 γ (9.7-fold) […], which can also regulate the allergic arm of the immune response.

CCCCCCCCCCCCCCC(=O)C(=O)NCC(=O)OC [AX115]
number of chemokines reduced (of the 12 chemokines increased in vehicle-treated EAE mice): 7 | number of cytokines reduced (of the 13 cytokines increased in vehicle-treated EAE mice): 9 | increase in expression of IL-10 (spinal cord): failed to increase IL-10 | increase in expression of MIP-1 γ (spinal cord): 9.7 fold | increase in expression of RANTES (spinal cord): 9.6 fold | increase in expression of eotaxin-2 (spinal cord): 1.8 fold | increase in soluble TNF receptor 1 (sTNFR1) (spinal cord): ~4 fold
